Results taken from ChEMBL document CHEMBL3758163, “Extended structure-activity study of thienopyrimidine-based EGFR inhibitors with evaluation of drug-like properties” (Eur J Med Chem, 2016).

Assays:
[1] = molecular target: Epidermal growth factor receptor (Homo sapiens, UniProt P00533); experiment: Inhibition of EGFR (unknown origin) by Z -LYTE assay
[2] = molecular target: Tyrosine-protein kinase ABL1 (Homo sapiens) (UniProt P00519); experiment: Inhibition of ABL1 (unknown origin) at 500 nM
[3] = molecular target: Tyrosine-protein kinase CSK (Homo sapiens) (UniProt P41240); experiment: Inhibition of CSK (unknown origin) at 500 nM
[4] = molecular target: Receptor tyrosine-protein kinase erbB-2 (Homo sapiens) (UniProt P04626); experiment: Inhibition of ERBB2 (unknown origin) at 500 nM
Receptor tyrosine-protein kinase erbB-2 (Homo sapiens), sequence (P04626 whole entry): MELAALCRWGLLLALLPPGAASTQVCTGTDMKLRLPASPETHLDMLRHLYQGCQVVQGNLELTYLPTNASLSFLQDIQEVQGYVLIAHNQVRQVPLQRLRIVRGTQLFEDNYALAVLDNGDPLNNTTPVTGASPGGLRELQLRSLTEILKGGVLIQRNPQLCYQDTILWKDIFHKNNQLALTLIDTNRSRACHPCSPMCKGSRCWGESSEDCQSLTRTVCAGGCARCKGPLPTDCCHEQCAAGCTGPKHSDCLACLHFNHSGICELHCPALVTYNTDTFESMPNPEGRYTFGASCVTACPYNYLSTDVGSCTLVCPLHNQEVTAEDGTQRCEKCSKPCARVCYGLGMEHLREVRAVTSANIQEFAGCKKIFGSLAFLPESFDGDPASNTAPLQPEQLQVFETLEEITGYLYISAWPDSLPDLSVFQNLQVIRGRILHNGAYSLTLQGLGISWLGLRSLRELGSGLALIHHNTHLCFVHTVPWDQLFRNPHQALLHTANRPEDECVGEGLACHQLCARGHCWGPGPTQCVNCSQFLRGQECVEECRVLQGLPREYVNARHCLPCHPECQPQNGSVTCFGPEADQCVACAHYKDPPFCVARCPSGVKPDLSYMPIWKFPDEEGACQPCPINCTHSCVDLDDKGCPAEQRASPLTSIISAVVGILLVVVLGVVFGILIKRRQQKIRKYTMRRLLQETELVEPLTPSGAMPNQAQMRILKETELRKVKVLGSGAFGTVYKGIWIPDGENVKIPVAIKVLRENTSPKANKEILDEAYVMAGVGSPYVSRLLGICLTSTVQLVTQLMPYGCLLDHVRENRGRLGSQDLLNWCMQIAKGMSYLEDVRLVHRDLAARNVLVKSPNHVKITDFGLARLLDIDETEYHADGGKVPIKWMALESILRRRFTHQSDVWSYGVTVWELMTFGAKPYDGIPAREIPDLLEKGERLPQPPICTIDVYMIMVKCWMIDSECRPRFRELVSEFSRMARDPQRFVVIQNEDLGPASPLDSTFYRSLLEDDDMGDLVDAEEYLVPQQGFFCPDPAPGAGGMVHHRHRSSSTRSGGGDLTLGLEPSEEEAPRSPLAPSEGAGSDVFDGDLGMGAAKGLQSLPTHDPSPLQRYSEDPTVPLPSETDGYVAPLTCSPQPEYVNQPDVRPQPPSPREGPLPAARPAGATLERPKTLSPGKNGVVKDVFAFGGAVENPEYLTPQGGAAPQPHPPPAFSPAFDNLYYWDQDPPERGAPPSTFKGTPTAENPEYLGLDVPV

[5] = molecular target: Vascular endothelial growth factor receptor 3 (Homo sapiens) (UniProt P35916); experiment: Inhibition of FLT4 (unknown origin) at 500 nM
[6] = molecular target: Tyrosine-protein kinase Fyn (Homo sapiens) (UniProt P06241); experiment: Inhibition of FYN (unknown origin) at 500 nM
Tyrosine-protein kinase Fyn (Homo sapiens), sequence (P06241 2-537 limits assumed): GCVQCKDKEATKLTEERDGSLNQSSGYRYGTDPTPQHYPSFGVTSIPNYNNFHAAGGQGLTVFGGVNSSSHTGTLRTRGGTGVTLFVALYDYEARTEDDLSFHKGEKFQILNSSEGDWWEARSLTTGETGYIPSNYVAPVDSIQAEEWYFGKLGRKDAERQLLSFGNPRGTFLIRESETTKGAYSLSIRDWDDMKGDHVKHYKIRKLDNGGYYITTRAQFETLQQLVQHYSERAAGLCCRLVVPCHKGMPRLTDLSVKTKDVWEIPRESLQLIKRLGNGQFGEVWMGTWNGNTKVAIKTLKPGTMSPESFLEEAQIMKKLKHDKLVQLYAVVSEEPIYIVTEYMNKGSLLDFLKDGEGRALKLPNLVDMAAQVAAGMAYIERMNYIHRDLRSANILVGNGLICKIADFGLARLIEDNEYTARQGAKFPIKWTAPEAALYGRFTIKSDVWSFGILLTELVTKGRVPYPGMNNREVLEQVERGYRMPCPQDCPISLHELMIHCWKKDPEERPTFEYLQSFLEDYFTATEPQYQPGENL

[7] = molecular target: Glycogen synthase kinase-3 beta (Homo sapiens) (UniProt P49841); experiment: Inhibition of GSK3B (unknown origin) at 500 nM
[8] = molecular target: Tyrosine-protein kinase JAK2 (Homo sapiens) (UniProt O60674); experiment: Inhibition of JAK2 (unknown origin) at 500 nM
Tyrosine-protein kinase JAK2 (Homo sapiens), sequence (O60674 whole entry): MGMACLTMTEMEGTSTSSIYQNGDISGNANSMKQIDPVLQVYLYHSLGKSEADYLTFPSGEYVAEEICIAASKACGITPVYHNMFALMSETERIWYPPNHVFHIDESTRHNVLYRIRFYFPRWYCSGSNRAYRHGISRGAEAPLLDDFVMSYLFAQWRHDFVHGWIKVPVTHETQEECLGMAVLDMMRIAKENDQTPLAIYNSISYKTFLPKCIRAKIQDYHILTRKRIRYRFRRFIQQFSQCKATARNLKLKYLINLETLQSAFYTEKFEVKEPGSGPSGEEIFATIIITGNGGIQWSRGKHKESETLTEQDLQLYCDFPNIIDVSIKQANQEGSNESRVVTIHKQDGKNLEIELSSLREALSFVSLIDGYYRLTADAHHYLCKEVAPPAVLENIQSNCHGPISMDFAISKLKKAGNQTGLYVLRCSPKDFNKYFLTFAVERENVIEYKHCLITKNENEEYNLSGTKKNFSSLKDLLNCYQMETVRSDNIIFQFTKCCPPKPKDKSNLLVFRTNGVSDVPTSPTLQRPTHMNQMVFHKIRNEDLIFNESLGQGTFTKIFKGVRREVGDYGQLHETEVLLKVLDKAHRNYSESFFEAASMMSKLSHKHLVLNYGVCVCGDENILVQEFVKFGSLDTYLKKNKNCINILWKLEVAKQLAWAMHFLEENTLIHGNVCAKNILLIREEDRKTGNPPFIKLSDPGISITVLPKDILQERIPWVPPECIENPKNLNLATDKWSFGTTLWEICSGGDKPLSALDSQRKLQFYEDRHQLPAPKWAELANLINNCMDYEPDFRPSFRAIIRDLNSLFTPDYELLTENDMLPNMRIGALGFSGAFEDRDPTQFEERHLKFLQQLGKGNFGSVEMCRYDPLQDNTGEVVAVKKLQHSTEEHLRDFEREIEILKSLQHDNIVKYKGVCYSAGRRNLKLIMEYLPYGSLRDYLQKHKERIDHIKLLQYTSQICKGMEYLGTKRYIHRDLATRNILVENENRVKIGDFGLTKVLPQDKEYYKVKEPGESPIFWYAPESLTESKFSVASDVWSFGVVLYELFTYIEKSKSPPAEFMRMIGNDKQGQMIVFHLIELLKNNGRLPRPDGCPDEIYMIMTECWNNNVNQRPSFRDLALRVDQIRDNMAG

[9] = molecular target: Tyrosine-protein kinase Lyn (Homo sapiens) (UniProt P07948); experiment: Inhibition of LYN B (unknown origin) at 500 nM
[10] = molecular target: Mitogen-activated protein kinase 14 (Homo sapiens) (UniProt Q16539); experiment: Inhibition of MAPK14 (unknown origin) at 500 nM
Mitogen-activated protein kinase 14 (Homo sapiens), sequence (Q16539 whole entry): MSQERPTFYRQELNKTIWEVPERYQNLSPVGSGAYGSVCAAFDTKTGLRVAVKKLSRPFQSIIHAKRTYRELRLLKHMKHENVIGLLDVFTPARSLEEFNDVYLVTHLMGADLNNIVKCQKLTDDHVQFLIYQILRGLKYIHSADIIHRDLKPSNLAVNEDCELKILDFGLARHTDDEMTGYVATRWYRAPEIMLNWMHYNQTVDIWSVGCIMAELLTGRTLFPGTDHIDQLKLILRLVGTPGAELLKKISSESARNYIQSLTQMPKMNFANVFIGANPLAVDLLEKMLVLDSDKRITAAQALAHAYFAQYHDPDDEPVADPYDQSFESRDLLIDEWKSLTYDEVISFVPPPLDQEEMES

[11] = molecular target: Mitogen-activated protein kinase 8 (Homo sapiens) (UniProt P45983); experiment: Inhibition of MAPK8 (unknown origin) at 500 nM
Mitogen-activated protein kinase 8 (Homo sapiens), sequence (P45983 whole entry): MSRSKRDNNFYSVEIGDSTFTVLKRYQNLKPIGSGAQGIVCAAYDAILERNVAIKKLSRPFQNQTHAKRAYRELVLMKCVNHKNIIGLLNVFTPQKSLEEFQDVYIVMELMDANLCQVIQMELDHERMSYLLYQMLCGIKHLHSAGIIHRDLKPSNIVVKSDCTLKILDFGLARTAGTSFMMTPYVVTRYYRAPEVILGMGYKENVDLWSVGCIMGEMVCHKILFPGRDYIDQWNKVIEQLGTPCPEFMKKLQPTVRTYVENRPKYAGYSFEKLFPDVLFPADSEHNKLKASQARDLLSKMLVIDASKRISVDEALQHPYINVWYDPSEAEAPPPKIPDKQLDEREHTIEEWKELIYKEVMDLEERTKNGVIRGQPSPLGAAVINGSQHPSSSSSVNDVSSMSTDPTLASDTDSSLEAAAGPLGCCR

[12] = molecular target: Hepatocyte growth factor receptor (Homo sapiens) (UniProt P08581); experiment: Inhibition of MET (unknown origin) at 500 nM
Hepatocyte growth factor receptor (Homo sapiens), sequence (P08581 whole entry): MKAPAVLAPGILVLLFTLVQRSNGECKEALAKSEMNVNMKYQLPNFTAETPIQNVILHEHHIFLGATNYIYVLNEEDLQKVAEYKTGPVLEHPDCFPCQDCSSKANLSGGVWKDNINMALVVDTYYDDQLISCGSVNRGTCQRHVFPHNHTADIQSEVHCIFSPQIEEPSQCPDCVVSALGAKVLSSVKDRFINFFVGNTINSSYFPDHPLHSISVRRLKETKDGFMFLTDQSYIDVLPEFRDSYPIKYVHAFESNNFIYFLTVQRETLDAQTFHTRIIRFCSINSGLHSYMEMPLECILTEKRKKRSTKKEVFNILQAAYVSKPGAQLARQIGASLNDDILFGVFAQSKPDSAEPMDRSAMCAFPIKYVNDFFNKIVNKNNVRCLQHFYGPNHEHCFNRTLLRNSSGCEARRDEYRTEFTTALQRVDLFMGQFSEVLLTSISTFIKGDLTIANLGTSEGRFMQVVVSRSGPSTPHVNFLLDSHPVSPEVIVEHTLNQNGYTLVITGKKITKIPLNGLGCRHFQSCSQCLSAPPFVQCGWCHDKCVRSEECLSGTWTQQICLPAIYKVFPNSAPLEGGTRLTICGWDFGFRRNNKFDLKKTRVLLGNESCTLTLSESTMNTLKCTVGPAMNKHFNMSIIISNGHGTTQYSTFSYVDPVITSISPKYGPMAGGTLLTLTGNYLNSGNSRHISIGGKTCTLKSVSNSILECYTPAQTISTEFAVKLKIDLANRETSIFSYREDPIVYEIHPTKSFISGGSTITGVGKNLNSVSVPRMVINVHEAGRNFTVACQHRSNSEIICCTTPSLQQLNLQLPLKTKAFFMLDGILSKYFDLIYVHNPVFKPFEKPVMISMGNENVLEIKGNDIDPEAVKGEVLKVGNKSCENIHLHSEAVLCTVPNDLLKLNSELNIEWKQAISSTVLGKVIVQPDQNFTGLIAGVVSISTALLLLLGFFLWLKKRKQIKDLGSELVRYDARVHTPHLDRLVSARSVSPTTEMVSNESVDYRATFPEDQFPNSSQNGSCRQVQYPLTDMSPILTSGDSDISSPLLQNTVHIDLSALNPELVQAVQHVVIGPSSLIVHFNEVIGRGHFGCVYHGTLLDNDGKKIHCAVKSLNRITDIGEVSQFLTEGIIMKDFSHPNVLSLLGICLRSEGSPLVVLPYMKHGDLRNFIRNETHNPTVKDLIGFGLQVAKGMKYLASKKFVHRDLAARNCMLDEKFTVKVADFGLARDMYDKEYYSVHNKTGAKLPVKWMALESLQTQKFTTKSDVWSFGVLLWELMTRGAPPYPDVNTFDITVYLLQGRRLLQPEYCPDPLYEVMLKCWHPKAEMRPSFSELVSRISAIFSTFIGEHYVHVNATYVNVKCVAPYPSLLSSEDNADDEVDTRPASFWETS

[13] = molecular target: Serine/threonine-protein kinase pim-2 (Homo sapiens) (UniProt Q9P1W9); experiment: Inhibition of PIM2 (unknown origin) at 500 nM
[14] = molecular target: Protein kinase C theta type (Homo sapiens) (UniProt Q04759); experiment: Inhibition of PRKCQ (unknown origin) at 500 nM
[15] = molecular target: Focal adhesion kinase 1 (Homo sapiens) (UniProt Q05397); experiment: Inhibition of PTK2 (unknown origin) at 500 nM
[16] = molecular target: Proto-oncogene tyrosine-protein kinase Src (Homo sapiens) (UniProt P12931); experiment: Inhibition of SRC (unknown origin) at 500 nM
[17] = molecular target: Tyrosine-protein kinase SYK (Homo sapiens) (UniProt P43405); experiment: Inhibition of SYK (unknown origin) at 500 nM
[18] = molecular target: T1, Serine/threonine-protein kinase Nek1 (Homo sapiens) (UniProt Q96PY6); experiment: Inhibition of NEK1 (unknown origin) at 500 nM
T1 sequence (whole entry): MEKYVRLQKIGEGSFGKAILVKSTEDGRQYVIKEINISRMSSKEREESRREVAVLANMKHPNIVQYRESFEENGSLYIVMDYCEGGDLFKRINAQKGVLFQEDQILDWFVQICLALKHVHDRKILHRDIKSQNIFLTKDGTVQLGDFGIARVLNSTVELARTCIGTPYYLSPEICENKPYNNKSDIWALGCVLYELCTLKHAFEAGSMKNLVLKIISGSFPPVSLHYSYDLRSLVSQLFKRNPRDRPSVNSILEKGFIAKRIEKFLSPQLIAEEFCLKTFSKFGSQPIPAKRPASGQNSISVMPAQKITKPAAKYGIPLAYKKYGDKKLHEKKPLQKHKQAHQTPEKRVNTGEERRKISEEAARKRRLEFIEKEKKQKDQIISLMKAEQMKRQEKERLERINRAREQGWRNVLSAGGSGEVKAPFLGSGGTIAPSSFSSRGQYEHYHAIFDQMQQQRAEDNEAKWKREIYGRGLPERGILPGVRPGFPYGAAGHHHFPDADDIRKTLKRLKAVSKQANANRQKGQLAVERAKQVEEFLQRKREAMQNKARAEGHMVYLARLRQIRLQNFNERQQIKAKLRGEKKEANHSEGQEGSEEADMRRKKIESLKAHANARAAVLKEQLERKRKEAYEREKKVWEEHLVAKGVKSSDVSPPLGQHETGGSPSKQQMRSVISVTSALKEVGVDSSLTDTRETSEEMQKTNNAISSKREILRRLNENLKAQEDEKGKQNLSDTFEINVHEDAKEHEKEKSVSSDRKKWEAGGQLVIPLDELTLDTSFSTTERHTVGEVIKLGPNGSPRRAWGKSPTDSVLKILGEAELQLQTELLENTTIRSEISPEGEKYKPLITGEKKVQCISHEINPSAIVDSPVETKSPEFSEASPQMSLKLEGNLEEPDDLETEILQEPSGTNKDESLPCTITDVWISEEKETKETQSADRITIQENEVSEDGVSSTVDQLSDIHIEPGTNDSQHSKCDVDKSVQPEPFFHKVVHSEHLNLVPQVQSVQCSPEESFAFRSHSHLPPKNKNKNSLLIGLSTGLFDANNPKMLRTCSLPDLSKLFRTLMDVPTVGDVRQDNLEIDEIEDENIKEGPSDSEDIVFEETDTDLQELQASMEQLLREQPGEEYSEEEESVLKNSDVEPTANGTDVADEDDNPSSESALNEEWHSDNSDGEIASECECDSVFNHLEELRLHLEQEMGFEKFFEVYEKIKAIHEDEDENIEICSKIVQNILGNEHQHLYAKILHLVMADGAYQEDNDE

| Structure (SMILES) | IC50 [1] | inhibition [2] | inhibition [3] | inhibition [4] | inhibition [5] | inhibition [6] | inhibition [7] | inhibition [8] | inhibition [9] | inhibition [10] | inhibition [11] | inhibition [12] | inhibition [13] | inhibition [14] | inhibition [15] | inhibition [16] | inhibition [17] | inhibition [18] |
| --- | --- | --- | --- | --- | --- | --- | --- | --- | --- | --- | --- | --- | --- | --- | --- | --- | --- | --- |
| C#Cc1cccc(Nc2ncnc3cc(OCCOC)c(OCCOC)cc23)c1 [ERLOTINIB] |  | 75% | 8% |  |  |  | -8% | 25% |  | 13% |  | 11% |  | -4% | -3% | 42% |  | -8% |
| COc1cc(CO)ccc1-c1cc2c(N[C@H](CO)c3ccccc3)ncnc2s1 |  | 22% | 5% | 50% | 1% | 12% | 8% | 9% | 56% | 13% | 14% | 3% | 1% | 1% | 1% | 9% | 10% | 13% |
| COc1cc(C(N)=O)ccc1-c1cc2c(N[C@H](CO)c3ccccc3)ncnc2s1 | 1.5 nM | 4% | 12% | 37% | 13% | 16% | 17% | -2% | 57% | 6% | 42% | -5% | 11% | -2% | 3% | 20% | 17% | 3% |
| COc1cc(CO)ccc1-c1cc2c(Nc3ccc(F)c(Cl)c3)ncnc2s1 | 2 nM | 19% | 15% | 48% | 8% | 5% | 4% | -3% | 15% | 6% | 14% | -5% | 6% | 3% | 16% | 14% | 11% |  |

Further lines, results first:

| IC50 [1] | inhibition [2] | inhibition [3] | inhibition [4] | inhibition [5] | inhibition [6] | inhibition [7] | inhibition [8] | inhibition [9] | inhibition [10] | inhibition [11] | inhibition [12] | inhibition [13] | inhibition [14] | inhibition [15] | inhibition [16] | inhibition [17] | inhibition [18] | Structure (SMILES) |
| --- | --- | --- | --- | --- | --- | --- | --- | --- | --- | --- | --- | --- | --- | --- | --- | --- | --- | --- |
| 2 nM | 27% | 13% | 54% | 4% | 23% | 3% | -3% | 37% | 9% | 8% | -3% | 1% | 12% | 7% | 17% | 23% |  | CN(C)CCNC(=O)c1ccc(-c2cc3c(N[C@H](CO)c4ccccc4)ncnc3s2)cc1 |
| 276 nM | -5% | 12% | -3% | 2% | 7% | 6% | -8% | 16% | 9% | 26% |  | 0% | -1% | 5% | 12% | 6% | 3% | C[C@@H](Nc1ncnc2sc(-c3ccccc3C(N)=O)cc12)c1ccccc1 |
| 0.5 nM | 6% | 3% | 63% | 3% | 8% | 13% | -4% | 62% | 8% |  | -9% | -4% | 0% | 3% | 9% | 2% | -4% | COc1ccc(C(=O)NCCN(C)C)cc1-c1cc2c(N[C@H](C)c3ccccc3)ncnc2s1 |
|  | 7% | 7% | 57% | 3% | 1% | 7% | 7% | 57% | 1% | 2% | 15% | 1% | 1% | 6% | 10% | 8% | 1% | COc1cc(CO)ccc1-c1cc2c(N[C@H](C)c3ccccc3)ncnc2s1 |
| 2 nM | 1% | 10% | 40% | 13% | 19% | 5% | -10% | 41% | 7% | 38% |  | 3% | -5% | 7% | 18% | 7% | 4% | C[C@@H](Nc1ncnc2sc(-c3ccc(C(=O)NCCN(C)C)cc3)cc12)c1ccccc1 |
| 5 nM | -3% | 8% | 19% | 7% | 0% | 8% | 6% | 9% |  | 3% |  | 11% | -5% | 0% | 15% | 16% | -6% | C#Cc1cccc(Nc2ncnc3sc(-c4ccc(CO)cc4OC)cc23)c1 |
| 14 nM | 20% | 18% | 32% | 9% | 6% | 5% | -2% | 22% | 8% | 17% | 7% | 5% | -10% | 15% | 17% | 38% | -5% | COc1cc(CO)ccc1-c1cc2c(Nc3ccccc3)ncnc2s1 |
